From paper PMC11061730, “Bacterial stigmasterol degradation involving radical flavin delta-24 desaturase and molybdenum-dependent C26 hydroxylase” (The Journal of Biological Chemistry, 2024)

Tests used:
[1] = molecular target: T1, Δ24-steroid desaturase (Δ24-SD) (Sterolibacterium denitrificans, UniProt A0A7Z7MWF7+A0A7Z7MWR3); test: LC-MS/MS of tryptic peptides; acid denaturation; type: binding; settings: covalent; histidyl residue near N terminus in both subunits
T1 construct: gene SDENCHOL_21263; alpha 63 kDa, beta 57 kDa; covalent FMN on a histidine of each subunit

[2] = substrate: CC[C@H](/C=C/[C@@H](C)[C@H]1CC[C@H]2[C@@H]3CCC4=CC(=O)C=C[C@]4(C)[C@H]3CC[C@]12C)C(C)C; test: UPLC assay of SDO to STO conversion, Michaelis-Menten fit; type: biochemical, Sterolibacterium denitrificans; settings: 1 mM DCPIP as electron acceptor, 50 mM Mops/KOH pH 7.0, 6% (w/v) HPCD, 30 °C, aerobic

Cc1cc2nc3c(=O)[nH]c(=O)nc-3n(C[C@H](O)[C@H](O)[C@H](O)COP(=O)(O)O)c2cc1C [flavin mononucleotide]
LC-MS/MS of tryptic peptides; acid denaturation [1]: contained flavin mononucleotide (FMN) modifications in both subunits

B1: Δ24-steroid desaturase (Δ24-SD) (Sterolibacterium denitrificans) (protein)
chain 1: MKNYDVIIIGGGINGLTTACYLQKAGLSVGVFEARGQCGAHCDTIELGRPGFLFNTHATWLVPAMSPPMADLELEKFNLELLGTDVIFAMPHADGTNTVQALDPGITMASIARHSEKDAALLGRIMEFGMMHMQEALEINGQMQYSRPTMALAERIAKLNDGLCKHLGLPIDGDDVMRMTGFELLELVYESEKVRLVPGTLGEYTGQWPLNRRVAPTVLGLCGMNPMAVHTAKGGSHALNHALVRCFVKHGGEIWTTCPVSKIIVENGRAVGIKLSEDALMPGEEIRAKNIVSNLTLTPTFTKLLGEEVIGPDWMRRIKYFNYDDPQLLGMYYAMKDAPVFKSAEYDPAIQRCWVGYFGPDSIDDVRNAQSQVMAGIMPTQTMGGWFNPTLADPSQAPAGHHVVSTWITVPPSPRKWGNKTLNGWSSWREGFGEALADTMDDLYEKMAPGFKDLIIERHINTPMDQENSNPSAVRGNMIGGSAIPEQAGENRPLPGVCVNGASRTFIPGLYLSNSIHPFGATHLASGYIAAVELAEDLGCRNQSWWISQPFEWFMGNLGNIPLNAGVADKWKV
chain 2: MSNETKFDAIVIGGGPNGLLAGAYLAKTGHKVVLFERRHETGGGLNTDEYFGFRFNLHAIYHLMAEKMPAWKDLDLANFGVRYLYPHVVAAFPFKDGSSLIFTRDVKETAESIAQFSKEDAAAYLAMWDEFQPMLDDYLIPMTYELPKPALDQLAEFGETEVGAKLAEISELSCLEVIDHYGFTHPRVRMALLSFPAMWGIHLADPLGFLYPLYLGRMLDAAFVKGGSHRLSSGMYRVFVKNGGTVIDENEVTRILVEDNRVTGVELQDGRRFMADAVVSTLNPVQTFKQLLPKDDVPYALHQAVDNWRWEERSFFGLHLGIDGGVRYNAQDPRVNEAMTVFIGLETEDELLDHLDRVDGKTTNGPEWLHIAQPTTFDKTMAPPNHSVIRAEAVVAYDPEWRARTPAFAAGCLDLIKQYATVDKVVQQRTVSPIDIEEKLTTMHRGSYKHGAYSTLQLGYLRPNDLCSCSETPIDGLFLGGASMYPGGMILGGPGYLAAQVTNDYLGEPVKK
notes: alpha 63 kDa, beta 57 kDa; covalent FMN on a histidine of each subunit
Km [2]: 51.5 ± 8.2 µM
